# Legend:
# AVPR1A [1] = target: T1, AVPR1A (Homo sapiens, UniProt P37288); test: SAFETYscan Calcium Flux AVPR1A Agonist; type: cell-based
# Source text: (§1) Supplement jm3c00155_si_002.xlsx, sheet "SAFETYScan" | column: RC50 (uM); Max Response
# NET = NET (Homo sapiens, UniProt P23975); test: SAFETYscan Transporter NET Blocker; type: cell-based
# Source text: as §1
# CNR1 = CNR1 (Homo sapiens, UniProt P21554); test: SAFETYscan cAMP CNR1 Antagonist; type: cell-based
# Source text: as §1
# HTR1B = HTR1B (Homo sapiens, UniProt P28222); test: SAFETYscan cAMP HTR1B Antagonist; type: cell-based
# HTR1B, sequence (P28222 whole entry): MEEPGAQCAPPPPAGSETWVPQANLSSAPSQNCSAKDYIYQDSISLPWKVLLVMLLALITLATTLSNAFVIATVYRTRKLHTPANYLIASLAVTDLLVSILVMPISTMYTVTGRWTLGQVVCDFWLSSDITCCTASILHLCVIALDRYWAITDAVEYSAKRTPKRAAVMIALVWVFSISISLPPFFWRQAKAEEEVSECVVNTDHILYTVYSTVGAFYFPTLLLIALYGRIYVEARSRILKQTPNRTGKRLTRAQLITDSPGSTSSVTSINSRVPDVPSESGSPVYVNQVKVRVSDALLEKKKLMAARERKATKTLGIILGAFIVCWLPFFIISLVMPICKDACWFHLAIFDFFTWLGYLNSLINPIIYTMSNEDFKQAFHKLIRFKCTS
# Source text: as §1
# CHRM3 = CHRM3 (Homo sapiens, UniProt P20309); test: SAFETYscan Calcium Flux CHRM3 Antagonist; type: cell-based
# CHRM3, sequence (P20309 whole entry): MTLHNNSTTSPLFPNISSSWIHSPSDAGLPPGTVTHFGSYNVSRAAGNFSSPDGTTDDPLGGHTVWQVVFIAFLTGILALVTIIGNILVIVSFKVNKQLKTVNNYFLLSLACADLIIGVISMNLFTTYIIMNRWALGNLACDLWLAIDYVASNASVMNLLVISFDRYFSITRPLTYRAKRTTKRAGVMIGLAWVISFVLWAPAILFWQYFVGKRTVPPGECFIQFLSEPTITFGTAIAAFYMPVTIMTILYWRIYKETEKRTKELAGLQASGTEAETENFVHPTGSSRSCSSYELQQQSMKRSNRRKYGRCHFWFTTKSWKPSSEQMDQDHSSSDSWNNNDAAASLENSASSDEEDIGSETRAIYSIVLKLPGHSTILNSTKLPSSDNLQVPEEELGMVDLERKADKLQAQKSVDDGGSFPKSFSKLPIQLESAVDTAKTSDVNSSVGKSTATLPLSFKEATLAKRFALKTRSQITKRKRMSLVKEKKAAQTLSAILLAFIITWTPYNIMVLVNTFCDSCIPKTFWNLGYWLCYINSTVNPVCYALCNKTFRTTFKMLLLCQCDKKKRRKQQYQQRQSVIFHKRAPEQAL
# Source text: as §1
# EDNRA = target: T2, EDNRA (Homo sapiens, UniProt P25101); test: SAFETYscan Calcium Flux EDNRA Agonist; type: cell-based
# T2 sequence (P25101 21-427): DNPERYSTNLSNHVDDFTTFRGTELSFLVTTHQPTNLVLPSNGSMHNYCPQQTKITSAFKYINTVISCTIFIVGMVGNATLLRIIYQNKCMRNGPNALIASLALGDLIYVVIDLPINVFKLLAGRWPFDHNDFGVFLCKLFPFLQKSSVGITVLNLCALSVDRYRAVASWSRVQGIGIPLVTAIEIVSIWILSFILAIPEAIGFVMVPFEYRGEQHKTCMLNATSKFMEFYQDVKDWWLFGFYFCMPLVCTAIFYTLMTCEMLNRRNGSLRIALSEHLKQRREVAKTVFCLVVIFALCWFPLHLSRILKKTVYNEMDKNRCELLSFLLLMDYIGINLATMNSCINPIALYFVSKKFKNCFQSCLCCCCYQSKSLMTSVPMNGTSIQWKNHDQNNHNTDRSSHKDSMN
# Source text: as §1
# OPRD1 = OPRD1 (Homo sapiens, UniProt P41143); test: SAFETYscan cAMP OPRD1 Agonist; type: cell-based
# Source text: as §1
# OPRM1 = OPRM1 (Homo sapiens, UniProt P35372); test: SAFETYscan cAMP OPRM1 Agonist; type: cell-based
# OPRM1, sequence (P35372 whole entry): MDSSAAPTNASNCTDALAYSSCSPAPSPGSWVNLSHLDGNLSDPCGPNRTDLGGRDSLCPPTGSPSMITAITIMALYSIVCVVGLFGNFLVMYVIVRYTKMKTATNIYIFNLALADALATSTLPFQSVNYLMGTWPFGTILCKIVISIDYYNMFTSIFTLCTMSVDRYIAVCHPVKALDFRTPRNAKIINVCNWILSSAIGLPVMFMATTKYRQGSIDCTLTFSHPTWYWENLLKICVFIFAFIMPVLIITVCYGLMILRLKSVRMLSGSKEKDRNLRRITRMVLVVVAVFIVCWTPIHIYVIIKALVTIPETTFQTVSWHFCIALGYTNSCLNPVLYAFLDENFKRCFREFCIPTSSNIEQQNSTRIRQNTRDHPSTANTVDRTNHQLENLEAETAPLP
# Source text: as §1
# HTR2A = HTR2A (Homo sapiens, UniProt P28223); test: SAFETYscan Calcium Flux HTR2A Agonist; type: cell-based
# HTR2A, sequence (P28223 whole entry): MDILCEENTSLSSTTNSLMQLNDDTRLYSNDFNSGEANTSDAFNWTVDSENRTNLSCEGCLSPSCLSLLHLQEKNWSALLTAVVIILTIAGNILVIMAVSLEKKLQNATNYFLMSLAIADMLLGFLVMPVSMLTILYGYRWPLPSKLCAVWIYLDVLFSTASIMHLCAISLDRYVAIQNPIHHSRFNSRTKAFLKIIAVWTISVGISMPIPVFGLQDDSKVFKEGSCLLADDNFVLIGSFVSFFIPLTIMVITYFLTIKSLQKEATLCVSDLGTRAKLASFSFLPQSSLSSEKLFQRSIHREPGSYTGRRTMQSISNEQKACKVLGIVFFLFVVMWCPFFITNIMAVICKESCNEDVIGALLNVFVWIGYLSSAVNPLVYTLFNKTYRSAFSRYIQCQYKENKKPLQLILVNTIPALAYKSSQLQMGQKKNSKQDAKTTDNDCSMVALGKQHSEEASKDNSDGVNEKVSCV
# Source text: as §1
# CCKAR = target: T3, CCKAR (Homo sapiens, UniProt P32238); test: SAFETYscan Calcium Flux CCKAR Antagonist; type: cell-based
# T3 sequence (P32238 1-428): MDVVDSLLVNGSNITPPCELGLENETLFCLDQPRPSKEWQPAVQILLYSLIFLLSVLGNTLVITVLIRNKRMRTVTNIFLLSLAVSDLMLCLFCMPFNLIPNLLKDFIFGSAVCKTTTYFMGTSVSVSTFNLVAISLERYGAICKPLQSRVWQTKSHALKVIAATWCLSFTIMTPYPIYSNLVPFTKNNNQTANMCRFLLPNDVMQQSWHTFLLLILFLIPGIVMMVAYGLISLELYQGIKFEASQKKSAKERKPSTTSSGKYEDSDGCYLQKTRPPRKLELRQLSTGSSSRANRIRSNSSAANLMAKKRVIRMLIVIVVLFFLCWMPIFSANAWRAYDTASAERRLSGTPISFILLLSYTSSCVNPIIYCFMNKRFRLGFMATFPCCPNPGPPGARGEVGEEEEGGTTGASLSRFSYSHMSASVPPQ
# Source text: as §1
# AVPR1A [2] = target: T1, AVPR1A; test: SAFETYscan Calcium Flux AVPR1A Antagonist; type: cell-based
# Source text: as §1
# PDE4D2 = PDE4D2 (Homo sapiens, UniProt Q08499); test: SAFETYscan Enzymatic PDE4D2 Inhibitor; type: biochemical
# PDE4D2, sequence (Q08499 303-809 limits assumed): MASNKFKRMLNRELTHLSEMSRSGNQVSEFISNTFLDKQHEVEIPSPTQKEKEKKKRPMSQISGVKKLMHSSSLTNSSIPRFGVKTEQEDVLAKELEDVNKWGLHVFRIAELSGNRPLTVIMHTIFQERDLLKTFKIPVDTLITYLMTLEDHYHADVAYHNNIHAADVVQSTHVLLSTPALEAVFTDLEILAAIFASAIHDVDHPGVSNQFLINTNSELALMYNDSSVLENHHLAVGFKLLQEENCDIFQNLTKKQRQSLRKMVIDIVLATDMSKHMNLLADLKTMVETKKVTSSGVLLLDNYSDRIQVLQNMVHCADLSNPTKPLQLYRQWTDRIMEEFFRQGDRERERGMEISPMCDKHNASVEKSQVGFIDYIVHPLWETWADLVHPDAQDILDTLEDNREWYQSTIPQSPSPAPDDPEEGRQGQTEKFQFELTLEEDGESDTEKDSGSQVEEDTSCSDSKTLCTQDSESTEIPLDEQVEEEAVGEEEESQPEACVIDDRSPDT
# Source text: as §1
# HTR2B = HTR2B (Homo sapiens, UniProt P41595); test: SAFETYscan Calcium Flux HTR2B Antagonist; type: cell-based
# HTR2B, sequence (P41595 whole entry): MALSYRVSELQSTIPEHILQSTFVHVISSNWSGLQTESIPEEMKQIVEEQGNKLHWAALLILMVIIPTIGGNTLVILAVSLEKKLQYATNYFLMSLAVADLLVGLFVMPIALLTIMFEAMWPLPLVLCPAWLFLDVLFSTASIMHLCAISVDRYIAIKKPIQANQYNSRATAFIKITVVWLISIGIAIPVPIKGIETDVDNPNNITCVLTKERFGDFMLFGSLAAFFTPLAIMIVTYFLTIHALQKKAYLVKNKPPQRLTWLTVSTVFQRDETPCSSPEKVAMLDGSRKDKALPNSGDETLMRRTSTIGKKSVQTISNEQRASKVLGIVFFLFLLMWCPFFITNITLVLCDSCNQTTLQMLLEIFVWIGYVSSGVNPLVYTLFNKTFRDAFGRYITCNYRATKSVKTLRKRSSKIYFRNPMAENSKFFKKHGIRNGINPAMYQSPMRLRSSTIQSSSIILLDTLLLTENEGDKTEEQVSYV
# Source text: as §1
# CNR2 = CNR2 (Homo sapiens, UniProt P34972); test: SAFETYscan cAMP CNR2 Agonist; type: cell-based
# CNR2, sequence (P34972 whole entry): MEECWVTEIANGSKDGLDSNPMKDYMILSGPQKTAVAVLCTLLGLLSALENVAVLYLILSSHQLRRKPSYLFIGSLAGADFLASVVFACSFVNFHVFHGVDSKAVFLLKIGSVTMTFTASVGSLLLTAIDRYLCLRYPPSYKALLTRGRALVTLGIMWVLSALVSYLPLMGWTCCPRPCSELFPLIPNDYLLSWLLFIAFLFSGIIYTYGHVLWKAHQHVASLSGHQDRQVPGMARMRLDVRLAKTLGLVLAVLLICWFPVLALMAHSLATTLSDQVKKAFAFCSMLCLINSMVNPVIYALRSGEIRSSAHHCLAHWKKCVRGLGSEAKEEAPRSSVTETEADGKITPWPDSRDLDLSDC
# Source text: Supplement jm3c00155_si_002.xlsx, sheet "SAFETYScan" | column: RC50 (uM); Hill; Max Response
# GR = target: T4, GR (Homo sapiens, UniProt P04150); test: SAFETYscan NHR Protein Interaction GR Antagonist; type: cell-based
# T4 sequence (P04150 1-777): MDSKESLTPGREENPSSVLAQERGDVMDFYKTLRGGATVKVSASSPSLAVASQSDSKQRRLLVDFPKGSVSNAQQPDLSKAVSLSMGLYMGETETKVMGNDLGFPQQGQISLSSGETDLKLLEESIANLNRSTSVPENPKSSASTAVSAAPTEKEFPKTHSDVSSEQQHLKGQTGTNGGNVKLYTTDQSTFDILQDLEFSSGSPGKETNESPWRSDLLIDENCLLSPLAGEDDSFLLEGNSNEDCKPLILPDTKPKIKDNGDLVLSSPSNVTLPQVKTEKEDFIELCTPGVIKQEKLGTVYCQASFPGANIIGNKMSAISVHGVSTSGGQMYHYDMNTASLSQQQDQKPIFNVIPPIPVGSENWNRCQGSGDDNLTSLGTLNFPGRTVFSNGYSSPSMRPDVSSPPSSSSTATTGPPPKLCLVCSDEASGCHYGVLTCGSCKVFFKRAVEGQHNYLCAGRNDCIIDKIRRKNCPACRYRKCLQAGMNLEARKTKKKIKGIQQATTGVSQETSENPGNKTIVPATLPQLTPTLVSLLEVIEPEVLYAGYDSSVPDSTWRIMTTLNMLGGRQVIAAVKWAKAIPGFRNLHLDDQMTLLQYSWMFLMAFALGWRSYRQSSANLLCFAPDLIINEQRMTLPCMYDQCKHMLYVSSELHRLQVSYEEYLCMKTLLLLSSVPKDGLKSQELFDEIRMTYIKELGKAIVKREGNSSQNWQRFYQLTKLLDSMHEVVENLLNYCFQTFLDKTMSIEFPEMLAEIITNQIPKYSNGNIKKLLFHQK
# Source text: as §1
# T1 sequence (P37288 whole entry): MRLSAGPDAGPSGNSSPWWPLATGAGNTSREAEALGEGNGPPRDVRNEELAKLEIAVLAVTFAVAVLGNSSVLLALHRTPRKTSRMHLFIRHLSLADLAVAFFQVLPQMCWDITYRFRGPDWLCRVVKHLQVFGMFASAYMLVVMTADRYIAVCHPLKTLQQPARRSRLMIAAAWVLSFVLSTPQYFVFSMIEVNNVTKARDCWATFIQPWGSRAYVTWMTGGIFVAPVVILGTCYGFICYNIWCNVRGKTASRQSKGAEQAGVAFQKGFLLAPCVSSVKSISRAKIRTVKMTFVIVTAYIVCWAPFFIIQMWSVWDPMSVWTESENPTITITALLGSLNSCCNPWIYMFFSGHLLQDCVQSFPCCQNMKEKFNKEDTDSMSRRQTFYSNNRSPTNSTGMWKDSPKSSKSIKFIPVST
# NET, sequence (P23975 whole entry): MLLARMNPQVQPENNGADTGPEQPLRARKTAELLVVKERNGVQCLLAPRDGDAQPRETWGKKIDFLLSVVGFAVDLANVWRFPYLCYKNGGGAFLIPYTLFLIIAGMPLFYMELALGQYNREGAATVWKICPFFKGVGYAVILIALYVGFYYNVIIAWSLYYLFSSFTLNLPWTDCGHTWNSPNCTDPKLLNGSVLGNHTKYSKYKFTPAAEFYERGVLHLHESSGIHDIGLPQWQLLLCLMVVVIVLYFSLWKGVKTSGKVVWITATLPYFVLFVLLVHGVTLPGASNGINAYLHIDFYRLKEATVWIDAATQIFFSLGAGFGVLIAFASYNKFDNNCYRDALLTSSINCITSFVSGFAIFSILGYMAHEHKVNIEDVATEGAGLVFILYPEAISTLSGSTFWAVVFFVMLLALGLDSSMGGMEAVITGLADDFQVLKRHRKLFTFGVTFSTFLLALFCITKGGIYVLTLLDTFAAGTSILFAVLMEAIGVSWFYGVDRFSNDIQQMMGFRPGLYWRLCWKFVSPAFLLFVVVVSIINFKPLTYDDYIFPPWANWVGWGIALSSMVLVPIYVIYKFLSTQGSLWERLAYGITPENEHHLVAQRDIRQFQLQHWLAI
# CNR1, sequence (P21554 whole entry): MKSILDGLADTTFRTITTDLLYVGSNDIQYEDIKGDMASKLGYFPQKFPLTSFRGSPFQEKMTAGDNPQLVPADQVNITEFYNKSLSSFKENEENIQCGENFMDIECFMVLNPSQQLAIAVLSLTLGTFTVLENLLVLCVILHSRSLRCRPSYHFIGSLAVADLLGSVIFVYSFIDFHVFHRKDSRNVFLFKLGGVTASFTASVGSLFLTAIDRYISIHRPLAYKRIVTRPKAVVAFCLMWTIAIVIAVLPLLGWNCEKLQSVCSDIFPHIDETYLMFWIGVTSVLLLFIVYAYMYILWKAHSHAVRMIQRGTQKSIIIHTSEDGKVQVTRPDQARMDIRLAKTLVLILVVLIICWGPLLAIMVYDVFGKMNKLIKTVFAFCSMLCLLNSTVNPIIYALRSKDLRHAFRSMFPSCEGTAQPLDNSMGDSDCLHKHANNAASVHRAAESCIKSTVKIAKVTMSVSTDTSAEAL
smiles,measurement,setting,value
"Cn1c(=O)c2c(c3cc(Nc4ccnc(F)c4Cl)ccc31)N[C@@H](C1CC1)C(F)(F)CO2 [compound 17, (S)-10-((3-chloro-2-fluoropyridin-4-yl)amino)-2-cyclopropyl-3,3-difluoro-7-methyl-1,2,3,4-tetrahydro-[1,4]oxazepino[2,3-c]quinolin-6(7H)-one]",Emax,AVPR1A [1]; read-out: Max Response,0%
same,EC50,AVPR1A [1]; read-out: RC50 (EC50),> 10 µM
same,IC50,NET,> 10 µM
same,Emax,"NET; NET, Transporter, Blocker, read-out: Max Response",0%
same,IC50,CNR1,> 10 µM
same,Emax,"CNR1; CNR1, cAMP, Antagonist, read-out: Max Response",0%
same,IC50,HTR1B,> 10 µM
same,Emax,"HTR1B; HTR1B, cAMP, Antagonist, read-out: Max Response",0%
same,IC50,CHRM3,> 10 µM
same,Emax,"CHRM3; CHRM3, Calcium Flux, Antagonist, read-out: Max Response",1.21%
same,Emax,EDNRA; read-out: Max Response,0%
same,EC50,EDNRA; read-out: RC50 (EC50),> 10 µM
same,EC50,OPRD1,> 10 µM
same,Emax,"OPRD1; OPRD1, cAMP, Agonist, read-out: Max Response",23.6%
same,EC50,OPRM1,> 10 µM
same,Emax,"OPRM1; OPRM1, cAMP, Agonist, read-out: Max Response",13.3%
same,EC50,HTR2A,> 10 µM
same,Emax,"HTR2A; HTR2A, Calcium Flux, Agonist, read-out: Max Response",2.33%
same,Emax,CCKAR; read-out: Max Response,0%
same,IC50,CCKAR; read-out: RC50 (IC50),> 10 µM
same,Emax,AVPR1A [2]; read-out: Max Response,2.15%
same,IC50,AVPR1A [2]; read-out: RC50 (IC50),> 10 µM
same,Emax,PDE4D2; read-out: Max Response,15%
same,IC50,PDE4D2; read-out: RC50 (IC50),> 10 µM
same,IC50,HTR2B,> 10 µM
same,Emax,"HTR2B; HTR2B, Calcium Flux, Antagonist, read-out: Max Response",0%
same,EC50,CNR2,1400 nM
same,Hill,"CNR2; CNR2, cAMP, Agonist",0.61
same,Emax,"CNR2; CNR2, cAMP, Agonist, read-out: Max Response",77.7%
same,Emax,GR; read-out: Max Response,12.3%
same,IC50,GR; read-out: RC50 (IC50),> 10 µM

# Source: paper PMC10150366, “Discovery of an In Vivo Chemical Probe for BCL6 Inhibition by Optimization of Tricyclic Quinolinones” (Journal of Medicinal Chemistry, 2023)
